Experimental data from PMC6629693 (Scientific Reports, 2019).
“Also recorded” adds a separate entry of the source. Where two headings read alike, the source gives them in different places.

Key:
[1] = target: D206N HtxB (Stutzerimonas stutzeri, UniProt O69061, D238N); experiment: biochemical; type: binding, Pseudomonas stutzeri
[2] = target: T1, WT HtxB (Stutzerimonas stutzeri, UniProt O69061); conditions: pH 5
[3] = target: T2, D206A HtxB (Stutzerimonas stutzeri, UniProt O69061, D238A)
[4] = target: T1, WT HtxB; conditions: 10 mM phosphite, 1 mM HtxB
[5] = target: T2, D206A HtxB; conditions: 10 mM phosphite, pH range 4-9
[6] = Fig. 1; no reference given; cited from earlier work
[7] = target: HtxB; conditions: cited from earlier work
[8] = target: T1, WT HtxB; experiment: biochemical
[9] = target: T2, D206A HtxB; experiment: biochemical

Sequence of D206N HtxB (O69061 34-298 D238N limits assumed): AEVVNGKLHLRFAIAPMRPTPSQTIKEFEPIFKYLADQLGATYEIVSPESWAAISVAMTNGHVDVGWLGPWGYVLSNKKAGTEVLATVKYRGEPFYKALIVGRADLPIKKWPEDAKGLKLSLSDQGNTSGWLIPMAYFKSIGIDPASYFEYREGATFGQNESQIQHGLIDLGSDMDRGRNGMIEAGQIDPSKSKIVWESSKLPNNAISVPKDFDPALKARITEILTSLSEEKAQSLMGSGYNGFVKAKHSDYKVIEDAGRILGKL
T1 sequence (O69061 34-298): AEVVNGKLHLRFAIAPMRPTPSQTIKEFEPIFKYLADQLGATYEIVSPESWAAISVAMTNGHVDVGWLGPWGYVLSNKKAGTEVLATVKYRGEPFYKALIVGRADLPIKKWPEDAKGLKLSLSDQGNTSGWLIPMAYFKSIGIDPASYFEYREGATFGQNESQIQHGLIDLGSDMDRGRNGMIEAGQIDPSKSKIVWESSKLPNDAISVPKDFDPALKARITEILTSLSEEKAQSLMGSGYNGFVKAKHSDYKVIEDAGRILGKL
T2 sequence (O69061 34-298 D238A): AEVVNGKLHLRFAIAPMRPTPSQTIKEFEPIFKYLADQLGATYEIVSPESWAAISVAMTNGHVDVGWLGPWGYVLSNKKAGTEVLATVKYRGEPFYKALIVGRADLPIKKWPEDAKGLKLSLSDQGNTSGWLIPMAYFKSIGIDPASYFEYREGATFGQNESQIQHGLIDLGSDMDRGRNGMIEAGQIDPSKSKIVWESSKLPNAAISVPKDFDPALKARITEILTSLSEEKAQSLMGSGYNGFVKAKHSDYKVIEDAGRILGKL

Row | Compound | Kd [1] | Kd ([1]; read-out: Calculated Kd, pH 5) | fold lower affinity than hypophosphite at the same pH [2] | binding (in words) ([3]; pH 7.4) | Kd ([3]; read-out: Calculated Kd, pH 5) | pH of maximal line broadening ([4]; pH 9-4) | linebroadening of the 31P peak (in words) ([4]; reducing pH from 9 to 4) | linebroadening of the 31P peak (in words) [5] | pKa2 [6] | Kd ([7]; pH 7.4) | Kd [8] | Kd [9] | ligand concentration at which protein was not saturated in full titration ([1]; 50 mM HEPES pH 7.4) | binding (in words) ([1]; 50 mM HEPES pH 7.4, 100 mM phosphate) | binding (in words) [7]
1 | O=[PH](O)O [phosphite] | > 100 mM | > 100 mM | ca. 1000 × | No evidence of D206A HtxB binding | > 100 mM | 6 | significant linebroadening | did not show significant linebroadening | 1.3 | > 10 mM | 1.74 mM | > 100 mM | – | – | –
2 | phosphate | – | – | – | – | – | – | – | – | – | – | – | – | > 100 mM | weakly; also recorded: incredibly weak | does not bind
